Laboratory results from US8889659B2, “Pain relief compositions, manufacture and uses” (API Genesis, LLC, priority 2011, dated 2014).

How the values were obtained:
[1] = cited from earlier work
pain threshold = details: in vivo; cited from earlier work
[2] = Diclofenac sodium solubility studies in solvents; type: physicochemical; details: for DICLOFENAC SODIUM SOLUBILITY: 2 wt. % Diclofenac Sodium
Method: All solubility samples were prepared in 20 gram sample size. The ingredients of each test samples were weighed to the nearest 0.01 grams. The 20 gram samples were mixed in 50 cc Pyrex glass beakers.
All solubility studies were performed with “Diclofenac Sodium Salt” obtained from Sigma Aldrich, St. Louis, Mo. (CAS #15307-79-6; Sigma-Aldrich Catalog No. D6899; Lot # BCBB7312; M.P. 275-277° C.)
The ingredients were thoroughly mixed at ambient temperatures ranging from 75° F. to 80° F.

[3] = Miscibility of diclofenac sodium and capsaicin liquid solutions
Method: The table below includes the compositions of 7 completely miscible and transparent diclofenac sodium and capsaicin liquid solutions that were prepared.
It is evident that alcohols (ethyl alcohol and/or ethoxydiglycol) are required to effect the solubility of Diclofenac salts within the oil based ingredients of the capsaicin vehicles.

nasal airway resistance = details: intranasal use, cited from earlier work
blood flow = details: […] gel, topical, cited from earlier work
[4] = Solubility of nonivamide / capsaicin in methyl salicylate

CCOC(=O)c1ccc(N)cc1 [Benzocaine]
Aqueous Soluble. [1]: sparingly | Oil Soluble [1]: Soluble

CC(C)[C@@H]1CC[C@@H](C)C[C@H]1O [(l)-menthol]
analgesic effect (pain threshold) (pain threshold): able to increase pain threshold

COC(=O)c1ccccc1O [Methyl Salicylate, Methyl salicylate]
Aqueous Soluble. [1]: sparingly

CCCNC(C)C(=O)Nc1ccccc1C (centres unmarked) [Prilocaine]
Aqueous Soluble. [1]: sparingly | Oil Soluble [1]: soluble

CC12CCC(CC1=O)C2(C)C (centres unmarked) [Camphor]
Oil Soluble [1]: soluble

O=C([O-])Cc1ccccc1Nc1c(Cl)cccc1Cl.[Na+] [Diclofenac Sodium]
DICLOFENAC SODIUM SOLUBILITY ([2]; Sample 1: 98 wt. % Methyl Salicylate, ambient 75-80° F.): Sparingly Soluble/Insoluble | DICLOFENAC SODIUM SOLUBILITY ([2]; Sample 2: 50 wt. % Methyl Salicylate, 15 wt. % Menthol, 11 wt. % Camphor, 1.5 wt. % Phenol, 20.5 wt. % Macadamia Nut Oil): Sparingly Soluble/Insoluble | DICLOFENAC SODIUM SOLUBILITY ([2]; Sample 3: 98 wt. % Ethyl Alcohol): ^(10)Completely Soluble | DICLOFENAC SODIUM SOLUBILITY ([2]; Sample 4: 98 wt. % Transcutol): ^(10)Completely Soluble | DICLOFENAC SODIUM SOLUBILITY ([2]; Sample 5: 88 wt. % Methyl Salicylate, 10 wt. % Ethyl Alcohol): ^(10)Completely Soluble | DICLOFENAC SODIUM SOLUBILITY ([2]; Sample 6: 50 wt. % Methyl Salicylate, 15 wt. % Menthol, 11 wt. % Camphor, 1.5 wt. % Phenol, 18.5 wt. % Macadamia Nut Oil): Sparingly Soluble/Insoluble | DICLOFENAC SODIUM SOLUBILITY ([2]; Sample 7: 50 wt. % Methyl Salicylate, 15 wt. % Menthol, 11 wt. % Camphor, 1.5 wt. % Phenol, 18.5 wt. % Ethyl Alcohol, 2 wt. % Capsaicin): ^(10)Completely Soluble | DICLOFENAC SODIUM SOLUBILITY ([2]; Sample 8: 50 wt. % Methyl Salicylate, 15 wt. % Menthol, 11 wt. % Camphor, 1.5 wt. % Phenol, 10.5 wt. % Ethyl Alcohol, 2 wt. % Capsaicin): ^(10)Completely Soluble | effect of heating to ˜35° C. on solubility ([2]; mixtures where solubility was sparingly soluble to insoluble): did not have a significant impact | concentration with complete solubility/miscibility in the ethyl alcohol capsaicin vehicle [3]: < 2 wt. %

COc1cc(CNC(=O)CCCC/C=C/C(C)C)ccc1O [Capsaicin, N-(4-hydroxy-3-methoxybenzyl)-8-methylnon-trans-6-enamide]
reduction in nasal airway resistance (nasal airway resistance): 60% | effectiveness continued for (nasal airway resistance; in most patients): more than 4 months | Aqueous Soluble. [1]: insoluble | Oil Soluble [1]: soluble | solubility in alcohol, methyl salicylate, ether, benzene and chloroform [1]: freely soluble | solubility in water [1]: practically insoluble

CCO [Ethyl Alcohol]
Aqueous Soluble. [1]: miscible | Oil Soluble [1]: soluble

CC1CCC(C(C)C)C(O)C1 (centres unmarked) [Menthol]
blood flow remains reduced (blood flow; 10 minutes after application): ~20% | reduction of blood flow (blood flow; within 60 seconds of application): 35% | Oil Soluble [1]: soluble

CCCCCCCCC(=O)NCc1ccc(O)c(OC)c1 [Nonivamide, vanillylamide of n-nonanoic acid]
solubility levels in methyl salicylate [4]: exceeded 25 wt. % | precipitation from 30 wt. % solution in methyl salicylate ([4]; after 2 weeks of storage at 5° C.): no evidence of any precipitation | precipitation from 30 wt. % solution in methyl salicylate ([4]; powder added at ambient temperature, cooled to −10° C. for 10 hours): did not result in the precipitation

CC1CC[C@H](C(C)C)[C@@H](O)C1 (some centres unmarked) [(d)-menthol]
analgesic effect (pain threshold) (pain threshold): completely devoid of any analgesic effect
